Common to all, as to experiment: inhibition of tumour cell growth, NCI panel, 48 h
The test system of experiment [1] is SF-539 CNS.
Experiment [2] has as its system TK-10 renal.
In experiment [3] the test system is MCF7 breast.
Experiment [4] concerns MALME-3M melanoma.
Experiment [5] concerns PC-3 prostate.
The subject of experiment [6] is HCT-116 colon.
Experiment [7] concerns NCI-H23 lung.
Experiment [8] relates to K-562 leukemia.
Experiment [9] has as its system OVCAR-3 ovarian.
Experiment [10] relates to SNB-75 CNS.

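96-well plates; 48 h exposure; 5 concentrations. Endpoints by linear interpolation between flanking doses. Not reached: highest tested concentration assigned. GI50 = concentration required for 50% inhibition of growth. TGI: total growth inhibition.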 Where a SMILES comes first, the peptide text is derived from it. Bridges are numbered along the chain shown (N, C = ends). Roman numbers before positions name the chains, in order. [ ]: non-standard residue; d: D form. The star is where a group is joined. Quinoxaline2carbonyl = O=C(c1cnc2ccccc2n1)*; NMeV = CN[CH](C(=O)O)C(C)C; NMeC = CN[CH](CS)C(=O)O

For `CC1(C)OC2C(=O)C=C(COCc3ccccc3)C2O1` (stereo not given), the TGI in [1] is 60.3 µM; in experiment [2] it was more than 100 µM; in experiment [3], more than 100 µM; in experiment [4], 45 µM; in experiment [5], more than 100 µM; in experiment [6], 54.3 µM. In addition, the TGI in experiment [7] is 59.4 µM; in experiment [8], more than 100 µM.

`CSC(=S)N/N=C(\C)c1cccc(C)n1`: the TGI in experiment [1] is 7.34 µM; in experiment [9] it was 1.99 µM; in [2], 33.9 µM; in [3], more than 13.2 µM; in experiment [4], 10 µM; in experiment [5], 36.3 µM. For the same compound, the TGI in [10] was 13.6 µM; in experiment [6] it was 1.84 µM; in experiment [7], 13.9 µM; in [8], more than 7.8 µM.

Turning to `COC1O[C@@H]2C[C@H]3C(C)(C)CCC[C@]3(C)C3=CCCC1[C@@]32C` (stereo not given in full), the GI50 in [1] is more than 100 µM; in [9], more than 100 µM; in [2], more than 100 µM; in [3], more than 100 µM; in experiment [4], more than 100 µM; in experiment [5], 515 nM. Further, the GI50 in experiment [10] is more than 100 µM; in experiment [6], more than 100 µM; in experiment [7], more than 100 µM; in experiment [8], more than 100000 nM. In addition, the TGI in experiment [1], in [9], in experiment [2], in [3], in experiment [4] and in [5] was more than 100 µM throughout. For the same compound, the TGI in experiment [10], in experiment [6], in experiment [7] and in [8] was more than 100 µM in each case.

Regarding `C[C@@H]1O[C@@H](OC[C@H]2O[C@@H](OCCc3ccc(O)c(O)c3)[C@H](O)[C@@H](O)[C@@H]2OC(=O)/C=C/c2ccc(O)c(O)c2)[C@H](O)[C@H](O)[C@H]1O`, the GI50 in experiment [1] was more than 100 µM; in experiment [9], more than 100 µM; in experiment [2], more than 100 µM; in experiment [5], more than 100000 nM; in [10], more than 100 µM; in [6], 50.5 µM. The GI50 in experiment [8] is more than 100000 nM. For the same compound, the TGI in experiment [1], in experiment [9], in experiment [2], in [5], in experiment [10] and in experiment [6] was more than 100 µM each time. The compound also displayed a TGI in [8] of more than 100 µM.

For the compound `N#Cc1c(N)[nH]c2ccc(Sc3ccccc3)cc12`, the TGI in experiment [1] is 0.694 µM; in [9] it was 15.8 µM; in experiment [2], 20.8 µM; in experiment [3], 16.6 µM; in experiment [5], 15.8 µM; in [10], 23 µM. The TGI stood at 8.34 µM in experiment [6], 10.3 µM in experiment [7] and 9.71 µM in experiment [8].

For `O=C(Oc1cccnc1)c1ccsc1Nc1ccnc(C(F)(F)F)c1`, the GI50 was 8.76 µM in [9]; 4.91 µM in experiment [2]; 3.51 µM in [3]; 45.6 µM in [4]; 9240 nM in experiment [5]; 25.2 µM in experiment [10]. For the same compound, the GI50 in [6] was 3.95 µM; in experiment [7], 4.07 µM; in experiment [8], 3740 nM. For the same compound, the TGI is more than 100 µM in experiment [9]; 93.7 µM in [2]; more than 100 µM in experiment [3]; more than 100 µM in experiment [4]; 73.2 µM in experiment [5]; more than 100 µM in experiment [10]. The TGI in experiment [6], in [7] and in [8] was more than 100 µM each time.

In the case of `O=[N+]([O-])c1cc(S(=O)(=O)Oc2ccccc2)ccc1Cl`, the GI50 in [1] is 3.52 µM; in experiment [9], 1.49 µM; in experiment [2], 12.5 µM; in experiment [3] it was 2.06 µM; in experiment [5], 2050 nM; in experiment [10], 2.54 µM. The GI50 is 1.85 µM in [6], 16.5 µM in experiment [7] and 432 nM in experiment [8]. Besides, the TGI turned out to be 10.4 µM in experiment [1]; 2.85 µM in experiment [9]; 25.1 µM in experiment [2]; 4.31 µM in [3]; 4.45 µM in [5]; 6.5 µM in experiment [10]. The TGI in experiment [6] is 3.43 µM; in [7] it was 37.9 µM; in [8] it was more than 100 µM.

On to `CN1CCN(Cc2ccc(NC(=O)c3[nH]ncc3Nc3ncnc4sc5c(c34)CCCC5)cc2)CC1`, for which the GI50 is 0.457 µM in experiment [1]; 0.22 µM in [9]; 1.14 µM in experiment [2]; 1.35 µM in experiment [4]; 198 nM in experiment [5]; 0.104 µM in experiment [10]. In addition, in [8], the GI50 is 198 nM. In addition, the TGI in experiment [1] was determined as 1.71 µM; in [9] it was 1.34 µM; in experiment [2] it was 2.4 µM; in experiment [4] it was 2.82 µM; in experiment [5], 1.33 µM; in experiment [10], 1.44 µM. Besides, the TGI in experiment [8] amounted to 1.14 µM.

For `CCC1(O)C(=O)OCc2c1cc1n(c2=O)Cc2cc3cc(N)ccc3nc2-1` (stereo not given), the TGI in experiment [1] was less than 0.01 µM; in experiment [9] it was 0.469 µM; in experiment [2], more than 28.2 µM; in experiment [3], more than 54.3 µM; in [4], 1.33 µM; in experiment [5], more than 100 µM. Besides, the TGI is 0.0375 µM in experiment [10], 0.0817 µM in experiment [7] and 31.3 µM in [8].

On to `CC1(C)CCC[C@]2(C)[C@@H](C=O)C(C=O)=CC[C@@H]12`, for which the TGI in experiment [1] was 53.3 µM; in [9] it was 28 µM; in [2] it was 74 µM; in experiment [3], 31 µM; in experiment [4], 32 µM; in experiment [5], more than 100 µM. Further, the results for the TGI in [6] and in [7] were 83.4 µM and 69.5 µM, respectively.

Regarding `N/N=C1\CC(=O)NC(=O)N1`, the TGI in experiment [9], in experiment [2], in experiment [3], in experiment [4], in experiment [5] and in experiment [10] was more than 100 µM each time. In addition, the TGI in [6], in [7] and in [8] was more than 100 µM throughout.

Consider `CN1CCN(CC(O)COc2c(Br)c(Br)c(Br)c3c2OC(C)(C)C3)CC1` (stereo not given), for which the GI50 in [1] was 3.21 µM; in experiment [9], 3.56 µM; in experiment [2], 15 µM; in experiment [3], 3.33 µM; in experiment [5], 5060 nM; in [10], 7.79 µM. Also, the values for the GI50 in experiment [6], in experiment [7] and in experiment [8] were 5.16 µM, 14 µM and 2060 nM, respectively. Further, the TGI was 13.5 µM in experiment [1]; 17.4 µM in [9]; 37.7 µM in experiment [2]; 14.5 µM in experiment [3]; 21.1 µM in [5]; 27 µM in experiment [10]. Moreover, the results for the TGI in [6], in experiment [7] and in experiment [8] were more than 100 µM, 34.1 µM and more than 100 µM, respectively.

Turning to `COc1ccc(C2[C@@H](Cl)C(=O)N2c2cc(OC)c(OC)c(OC)c2)cc1Cl` (stereo not given in full), the GI50 is 0.12 µM in experiment [9]; 0.94 µM in experiment [2]; 0.0367 µM in experiment [3]; 20.7 µM in experiment [4]; 64.2 nM in experiment [5]; 0.0734 µM in experiment [10]. For the same compound, the GI50 in experiment [6] is 0.0721 µM; in experiment [7] it was 0.428 µM; in experiment [8] it was 41 nM. Besides, the TGI in experiment [9] was 0.576 µM; in [2], 71.7 µM; in [3], more than 100 µM; in [4], 72.4 µM; in [5] it was more than 100 µM; in [10], 71.2 µM. The TGI in experiment [6] was 15.2 µM; in [7], more than 100 µM; in [8] it was more than 100 µM.

As for `CC1NC(=O)C(NC(=O)c2cnc3ccccc3n2)COC(=O)C(C(C)C)N(C)C(=O)C2CSSCC(C(=O)N(C)C(C(C)C)C(=O)OCC(NC(=O)c3cnc4ccccc4n3)C(=O)NC(C)C(=O)N2C)N(C)C1=O` (stereo not given) (I: Quinoxaline2carbonyl-SA[NMeC][NMeV] / II: Quinoxaline2carbonyl-SA[NMeC][NMeV]; ester I:1-II:C, I:C-II:1; disulfide I:3-II:3; configuration not given here), the TGI is more than 100 µM in experiment [9]; more than 5.39 µM in experiment [2]; less than 0.01 µM in experiment [3]; less than 0.01 µM in experiment [4]; 1.68 µM in experiment [5]; less than 0.01 µM in experiment [10]. Moreover, the TGI is 14 µM in [6], less than 0.0133 µM in [7] and more than 51.5 µM in experiment [8].

As to `C#CCOc1cccc(Nc2ncnc3c(NC(=O)CCl)cccc23)c1`, the GI50 in experiment [1] is 16.6 µM; in experiment [9], 16.5 µM; in [2], 40.1 µM; in [3], 14.5 µM; in experiment [4], 16.1 µM; in experiment [5], 22800 nM. Further, the GI50 in [6] is 18.1 µM; in [7] it was 18.3 µM; in [8] it was 17500 nM. For the same compound, the TGI in [1] is 31.3 µM; in [9], 31.7 µM; in experiment [2] it was more than 100 µM; in experiment [3], 48.3 µM; in experiment [4], 35 µM; in experiment [5], 55.6 µM. The TGI in experiment [6] worked out at 42.1 µM; in experiment [7], 47.9 µM; in experiment [8] it was 71.7 µM.

(Values after PubChem BioAssay (NCI).)
